These are literature values, as cited in US20230248696A1, “LENALIDOMIDE PRODRUGS, POLYMERIC CONJUGATES, AND FORMULATIONS THEREOF, AND THEIR USES FOR THE TREATMENT OF MULTIPLE MYELOMA” (DYNAMIC BIOLOGICS INC., priority 2019, published 2023).

The test system of data set [1] is Namalwa cells.
Test in data set [2]: not given
This is another data set of the same source.

Data set [3] relates to TNF-α, IL-1β, IL-6 and IL-12.
In data set [4] the test system is cyclooxygenase-2 (COX-2).
Data set [5] relates to IL-10, IL-2 and Interferon gamma (IFN-γ). The following applies: peripheral blood mononuclear cells.
Data set [6] concerns KG-1 cells. The following applies: cell line without chromosome 5 deletions.
For data set [7] the following is noted: high solubility and low permeability.
The test system of data set [8] is COX-1.
Data set [9] relates to TNF-alpha. The following applies: in vitro, versus racemic lenalidomide.
Data set [10] relates to IL-2. The following applies: in vitro, versus racemic lenalidomide.
The conditions of data set [11]: in vitro, versus racemic lenalidomide.

Regarding `Nc1cccc2c1CN(C1CCC(=O)NC1=O)C2=O` (racemic) [lenalidomide, 3-(4′ aminoisoindoline-1′-one)-1-piperidine-2,6-dione], the “reduction of maximal plasma concentration (Cmax) by co-administration with food” value (co-administration with food) is reported as 36%. The “oral lenalidomide dose absorbed” value (oral, fasting conditions) is greater than 90%. Also, for the setting “oral, with food”, the “reduction of area under the concentration-time curve (AUC) by food” value is 20% and the “reduction of maximum concentration (Cmax) by food” value is 50%. For the same compound, in data set [1], the “inhibiting growth of Namalwa cells” value is reported as “effective”. The “patients discontinuing maintenance therapy because of neurotoxicity” value in data set [2] (maintenance therapy) is recorded as 75%. In [2] (multiple myeloma patients treated with lenalidomide), the patients with dyspepsia is reported as 20%. In addition, the “inhibition of pro-inflammatory cytokines TNF-α, IL-1β, IL-6 and IL-12” value in data set [3] was “potent inhibitor”. In addition, the “inhibition of COX-2 expression” value in data set [4] is “inhibits”. Further, in data set [5], the “production of IL-10, IL-2 and IFN-γ” value is recorded as “increases production”. In addition, in [6], the “inhibiting growth of KG-1 cells” value was “much less effective”. In addition, the BCS class in data set [7] is given as 3. Further, the “inhibition of COX-1 expression” value in data set [8] is listed as “not”.

For `[2H]C1([2H])C(=O)NC(=O)[C@@]([2H])(N2Cc3c(N)cccc3C2=O)C1([2H])[2H]` [CTP-221], the “potency for TNF-alpha inhibition” value in data set [9] is listed as “greater potency compared to racemic lenalidomide”. The “potency for IL-2 induction (increased production)” value in data set [10] was “greater potency compared to racemic lenalidomide”. The “potency for anti-proliferative activities” value in data set [11] is “greater potency compared to racemic lenalidomide”.
